According to article PMC11672299, “Conjugation of Polycationic Peptides Extends the Efficacy Spectrum of β‐Lactam Antibiotics” (Advanced Science, 2024):
Each block holds one molecule with its values, some of them ahead of it. Peptide text beside a SMILES is read from it. * marks the point of attachment. X1 = CC(C)(O/N=C(\C(=O)N[C@@H]1C(=O)N2C(C(=O)[O-])=C(C[n+]3ccccc3)CS[C@H]12)c1csc(N)n1)C(=O)NCCCCCCN1C(=O)CC(*)C1=O

Key:
B. subtilis DSM 10 = test: microbe, parasite or virus in culture; assay type: cell-based; details: DSM 10, 20 h
Method: (§1) The minimum inhibitory concentration (MIC) of the β‐lactam–peptide conjugates was determined by broth microdilution as previously described.^[ [17] ^] Briefly, in cation‐adjusted MHB II medium, a twofold serial dilution of the compounds was prepared in 96‐well round‐bottom polystyrene or polypropylene microtiter plates with each well containing 50 µL. The plates were inoculated with 50 µL bacterial suspension and the final inoculum, in a total volume of 100 µL, contained 5 × 10^5 CFU mL^−1. The microplates were incubated for 20 h at 37 ± 1 °C. The lowest concentration preventing visible bacterial growth was considered the MIC value. For susceptibility testing of combinations of β‐lactamase‐inhibitors with either a β‐lactam antibiotic or a β‐lactam–peptide conjugate, fixed concentrations of the inhibitors according to the EUCAST (European Committee on Antimicrobial Susceptibility Testing) guidelines (clavulanic acid = 2 mg L^−1, avibactam = 4 mg L^−1) were used.

PBP2A = target: T1, PBP2A (Bacillus subtilis, UniProt P54488); test: Gel‐based PBP affinity assay (Bocillin FL competition); assay type: binding; details: B. subtilis membrane fractions, competition with Bocillin FL penicillin; compared with parent β‐lactam
T1 construct: endogenous in cells; host or cells: B. subtilis DSM 10, extracted membrane protein fraction
Method: (§2) B. subtilis DSM 10 and E. faecalis ATCC 51 299 (equal to DSM 12 956) membrane protein fractions were extracted according to the protocol of Dean et al. with minor modifications.^[ [34] ^] From a growing overnight bacterial culture, 3 L of LB (Luria‐Bertani) medium or TSB (tryptic soy broth) were inoculated with B. subtilis DSM 10 and E. faecalis ATCC 51 299, respectively, to obtain an OD600 = 0.3. The cultures were grown to an OD600 = 0.6–0.8 while shaking at 37 °C and cells were harvested by centrifugation at 4000 g for 30 min at 4 °C. The resulting pellet was washed twice with pre‐cooled PBS and resuspended in 30 mL of ice‐cooled PBS. The suspension was sonicated on ice (10 cycles of 30 s at 50% power for B. subtilis; 12 cycles of 30 s at 80% power for E. faecalis; 2 min intervals between cycles) using an Omni Ruptor 4000 ultrasonic homogenizer (Omni International, Kennesaw, GA, USA). Afterwards, the suspension was centrifuged at 7000 g for 10 min at 4 °C. The clear supernatant was transferred into a 50 mL polypropylene tube and centrifuged in a Beckman Coulter centrifuge equipped with a JA‐20 fixed‐angle rotor (Beckman Coulter, Krefeld, Germany) at 50 000 g for 1 h at 4 °C. The resulting pellet was washed with ice‐cold PBS and centrifuged a second time. The pellet was resuspended in 2 mL PBS and aliquots were stored at −80 °C. The protein content was determined using Bradford reagent (VWR International, Darmstadt, Germany) and Pierce BCA (bicinchoninic acid) protein assay kits (Thermo Fisher Scientific, Waltham, MA, USA) for membrane fractions of B. subtilis and E. faecalis, respectively.
(§3) Each dilution was combined with B. subtilis (30 µg) or E. faecalis (15 µg) extracted membrane fractions. As reference samples, membrane fractions incubated with only PBS were prepared. Reaction mixtures were incubated for 20 min at 37 °C while shaking at 400 rpm. Next, Bocillin FL penicillin (Thermo Fisher Scientific, Waltham, MA, USA) was added to obtain a final concentration of 20 µM in the mixture. Samples were incubated for 30 min at 37 °C while shaking at 400 rpm. To denature the samples, 4× Laemmli sample buffer (Bio‐Rad Laboratories, Feldkirchen, Germany) was added, and the samples incubated for 10 min at 70 °C. Afterwards, the samples were centrifuged for 5 min at 13 000 rpm. Samples were separated by SDS‐PAGE using a 10% Tris‐glycine gel for 100 min at 180 V. The bands were visualized using a Typhoon FLA 9500 imager (GE Healthcare, Chicago, IL, USA) with excitation at 473 nm. The gel images were analyzed using ImageJ software. Brightness and contrast were adjusted to improve the signal‐to‐noise ratio and the background signal was subtracted over the whole image. Next, integrated density values of the gel bands were measured and Bocillin FL penicillin labeling of each PBP in antibiotic‐treated samples were set in proportion to the reference sample. IC50 values were calculated with GraphPad Prism software (version 8.0.1) using inhibitor versus normalized response variable slope and least‐squares fit. […] The mean was calculated using the IC50 values of at least two independent assays for each antibiotic.

PBP5 = test: as above; assay type: binding; details: PBPs from vancomycin‐resistant E. faecalis; compared with parent; at concentrations considerably higher than MICs
Method: as §2, §3

[1] = test system: A. pittii Tü21‐041 (clinical isolate); test: microbe, parasite or virus in culture; assay type: cell-based; details: 20 h
Method: as §1

[2] = test system: C. freundii Tü21‐052 (clinical isolate); test: microbe, parasite or virus in culture; assay type: cell-based; details: 20 h
Method: as §1

[3] = test system: E. casseliflavus ATCC 700327; test: microbe, parasite or virus in culture; assay type: cell-based; details: ATCC 700327, 20 h
Method: as §1

[4] = test system: E. coli Tü20‐025 (clinical isolate); test: microbe, parasite or virus in culture; assay type: cell-based; details: Tü20‐025 (clinical isolate, 20 h)
Method: as §1

E. faecalis ATCC 29212 = test: microbe, parasite or virus in culture; assay type: cell-based; details: ATCC 29212, 20 h
Method: as §1

[5] = test system: K. pneumoniae Tü20‐036 (clinical isolate); test: microbe, parasite or virus in culture; assay type: cell-based; details: Tü20‐036 (clinical isolate, 20 h)
Method: as §1

A. bohemicus DSM 100419 = test: MIC by broth microdilution; assay type: cell-based; details: median (n = 3)
Method: as §1

PBPs of B. subtilis = test: Gel‐based PBP affinity assay (Bocillin FL competition); assay type: binding; details: at the concentrations tested (0.016–250 µM)
Method: as §2, §3

T1 sequence (P54488 whole entry): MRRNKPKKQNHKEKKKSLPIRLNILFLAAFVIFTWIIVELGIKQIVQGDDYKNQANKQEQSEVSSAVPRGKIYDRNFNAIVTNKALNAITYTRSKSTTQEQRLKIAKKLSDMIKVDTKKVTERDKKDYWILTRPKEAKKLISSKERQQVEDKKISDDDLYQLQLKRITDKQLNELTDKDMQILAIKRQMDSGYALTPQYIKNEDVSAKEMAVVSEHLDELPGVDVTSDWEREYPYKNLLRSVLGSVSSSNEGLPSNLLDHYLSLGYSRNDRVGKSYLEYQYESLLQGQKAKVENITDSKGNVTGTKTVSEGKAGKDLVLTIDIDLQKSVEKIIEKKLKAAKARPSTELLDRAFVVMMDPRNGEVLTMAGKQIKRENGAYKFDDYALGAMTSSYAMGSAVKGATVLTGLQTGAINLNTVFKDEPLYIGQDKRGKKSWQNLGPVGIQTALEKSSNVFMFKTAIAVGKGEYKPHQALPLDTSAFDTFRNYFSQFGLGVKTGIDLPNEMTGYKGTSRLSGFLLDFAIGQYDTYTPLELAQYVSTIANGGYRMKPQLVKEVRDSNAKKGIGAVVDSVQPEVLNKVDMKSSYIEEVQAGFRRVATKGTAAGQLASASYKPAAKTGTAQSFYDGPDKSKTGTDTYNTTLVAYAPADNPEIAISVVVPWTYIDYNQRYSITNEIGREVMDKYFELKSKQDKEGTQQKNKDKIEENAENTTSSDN

Compound: C[C@H]1[C@H](NC(=O)/C(=N\OC(C)(C)C(=O)NCCCCCCN2C(=O)CC(SC[C@H](NC(=O)[C@H](CCCNC(=N)N)NC(=O)[C@H](CCCNC(=N)N)NC(=O)[C@H](CCCNC(=N)N)NC(=O)[C@H](CCCNC(=N)N)NC(=O)[C@H](CCCNC(=N)N)NC(=O)[C@@H](N)CCCNC(=N)N)C(N)=O)C2=O)c2csc(N)n2)C(=O)N1S(=O)(=O)O (stereo partly drawn) [AZT-R6]
MIC (B. subtilis DSM 10): 0.06 µg/mL
affinity to PBP2A (PBP2A): higher affinity
binding to PBP5 (PBP5): slightly improved binding

MIC [1]: >64 µg/mL
MIC (B. subtilis DSM 10): >64 µg/mL
MIC [2]: >64 µg/mL
MIC [3]: >64 µg/mL
MIC [4]: >64 µg/mL
MIC (E. faecalis ATCC 29212): >64 µg/mL
MIC [5]: >64 µg/mL
Compound: N=C(N)NCCC[C@H](NC(=O)[C@H](CCCNC(=N)N)NC(=O)[C@H](CCCNC(=N)N)NC(=O)[C@H](CCCNC(=N)N)NC(=O)[C@H](CCCNC(=N)N)NC(=O)[C@@H](N)CCCNC(=N)N)C(=O)N[C@@H](CSC1CC(=O)N(CCCCCCN)C1=O)C(N)=O (stereo partly drawn) [BB linker‐R6]

Compound: CC(C)(O/N=C(\C(=O)N[C@@H]1C(=O)N2C(C(=O)[O-])=C(C[n+]3ccccc3)CS[C@H]12)c1csc(N)n1)C(=O)NCCCCCCN1C(=O)CC(SC[C@H](NC(=O)[C@H](CCCCN)NC(=O)[C@H](CCCCN)NC(=O)[C@H](CCCCN)NC(=O)[C@H](CCCCN)NC(=O)[C@H](CCCCN)NC(=O)[C@H](CCCCN)NC(=O)[C@H](CCCCN)NC(=O)[C@H](CCCCN)NC(=O)[C@@H](N)CCCCN)C(N)=O)C1=O (stereo partly drawn) [CTZ-K9] (H-KKKKKKKKKC(X1)-NH2; N-terminus and C-terminus assumed)
antimicrobial activity (rank among CTZ–peptide conjugates) (A. bohemicus DSM 100419): most potent conjugates

MIC (B. subtilis DSM 10): > 64 µg/mL
MIC [3]: > 64 µg/mL
MIC (E. faecalis ATCC 29212): > 64 µg/mL
binding to the PBPs of B. subtilis (PBPs of B. subtilis): not observed
Compound: N=C(N)NCCC[C@H](NC(=O)[C@H](CCCNC(=N)N)NC(=O)[C@H](CCCNC(=N)N)NC(=O)[C@H](CCCNC(=N)N)NC(=O)[C@H](CCCNC(=N)N)NC(=O)[C@@H](N)CCCNC(=N)N)C(=O)N[C@@H](CS)C(N)=O [R6C]
